Results: patent US11787796B2, “Plasma Kallikrein inhibitors and uses thereof” (Takeda Pharmaceutical Company Limited, priority 2019, dated 2023)

Target: human activated kallikrein enzyme (Homo sapiens (Human), UniProt P03952)
Experiment: Plasma kallikrein inhibition assay with fluorogenic peptide substrate, 500 pM activated kallikrein format
Format: biochemical
Settings: 500 pM activated kallikrein; 300 uM Pro-Phe-Arg-7-amido-4-methylcoumarin substrate; 30 min preincubation, 10 min reaction at RT; read-out: Primary Dose Response Assay: Average EC50
How it was run: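 Human activated kallikrein (500 pM format) was preincubated 30 min at RT with inhibitor in 20 mM Tris pH 7.5, 150 mM NaCl, 1 mM EDTA, 0.1% PEG-400, 0.1% Triton X-100. Reactions then ran 10 min at RT with 300 uM Pro-Phe-Arg-AMC. Fluorescence was read at ex 380/em 460 nm.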

human activated kallikrein enzyme, sequence (P03952 391-638): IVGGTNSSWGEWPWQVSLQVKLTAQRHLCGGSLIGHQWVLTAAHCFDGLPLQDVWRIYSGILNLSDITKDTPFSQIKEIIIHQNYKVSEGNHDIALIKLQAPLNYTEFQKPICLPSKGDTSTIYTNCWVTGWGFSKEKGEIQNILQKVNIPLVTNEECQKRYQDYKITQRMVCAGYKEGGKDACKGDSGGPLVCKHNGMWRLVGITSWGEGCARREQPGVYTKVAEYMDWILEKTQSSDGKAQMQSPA
human activated kallikrein enzyme, sequence (P03952 20-390 partner): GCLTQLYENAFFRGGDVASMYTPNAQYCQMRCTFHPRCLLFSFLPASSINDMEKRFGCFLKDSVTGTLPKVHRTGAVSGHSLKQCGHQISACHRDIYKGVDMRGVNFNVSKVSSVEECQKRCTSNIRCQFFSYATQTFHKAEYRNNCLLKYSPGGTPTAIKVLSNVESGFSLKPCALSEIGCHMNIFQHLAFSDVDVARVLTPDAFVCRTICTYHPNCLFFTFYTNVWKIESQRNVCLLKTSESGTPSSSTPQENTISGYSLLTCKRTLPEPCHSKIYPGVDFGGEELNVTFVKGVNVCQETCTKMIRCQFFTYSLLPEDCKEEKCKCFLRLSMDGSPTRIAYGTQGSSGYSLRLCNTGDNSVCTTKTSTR

EC50 [nM] | Compound
1 to 10 | COc1ccc(-n2cnnn2)c(CNC(=O)c2cc3n(n2)CCC3c2cn3cc(C4CC4)ccc3n2)c1F (stereo not drawn) [Example I-2, 4-(6-cyclopropylimidazo[1,2-a]pyridin-2-yl)-N-(2-fluoro-3-methoxy-6-(1H-tetrazol-1-yl)benzyl)-5,6-dihydro-41-pyrrolo[1,2-b]pyrazole-2-carboxamide]
1 to 10 | COc1ccc(-c2cn[nH]c2)c(CNC(=O)c2cn(Cc3cn4cc(C5CC5)ccc4n3)nn2)c1F [Example I-67, 1-((6-cyclopropylimidazo[1,2-a]pyridin-2-yl)methyl)-N-(2-fluoro-3-methoxy-6-(1H-pyrazol-4-yl)benzyl)-1H-1,2,3-triazole-4-carboxamide]
1 to 10 | O=C(NCc1cc2c(Cl)c[nH]c2cn1)c1cn(Cc2cn3cc(C4CC4)ccc3n2)nn1 [Example I-146, N-((3-chloro-1H-pyrrolo[2,3-c]pyridin-5-yl)methyl)-1-((6-cyclopropylimidazo[1,2-a]pyridin-2-yl)methyl)-1H-1,2,3-triazole-4-carboxamide]
> 7100 | O=C(NCc1cc2c(Cl)nccc2s1)c1cn(Cc2cn3cc(C4CC4)ccc3n2)nn1 [Example I-11, N-((4-chlorothieno[3,2-c]pyridin-2-yl)methyl)-1-((6-cyclopropylimidazo[1,2-a]pyridin-2-yl)methyl)-1H-1,2,3-triazole-4-carboxamide]
100 to 2000 | O=C(NCc1ccc2nccn2c1)c1cn(Cc2cn3cc(C4CC4)ccc3n2)nn1 [Example I-136, 1-((6-cyclopropylimidazo[1,2-a]pyridin-2-yl)methyl)-N-(imidazo[1,2-a]pyridin-6-ylmethyl)-1H-1,2,3-triazole-4-carboxamide]
10 to 100 | O=C(NCc1cc(Cl)ccc1-n1cc(Cl)nn1)c1cn(Cc2cn3cc(C4CC4)ccc3n2)nn1 [Example I-3, N-(5-chloro-2-(4-chloro-1H-1,2,3-triazol-1-yl)benzyl)-1-((6-cyclopropylimidazo[1,2-a]pyridin-2-yl)methyl)-1H-1,2,3-triazole-4-carboxamide]
100 to 2000 | O=C(NC1Cc2ccc(Cl)cc21)c1cn(Cc2cn3cc(C4CC4)ccc3n2)nn1 (stereo not drawn) [Example I-151, N-(4-chlorobicyclo[4.2.0]octa-1(6),2,4-trien-7-yl)-1-((6-cyclopropylimidazo[1,2-a]pyridin-2-yl)methyl)-1H-1,2,3-triazole-4-carboxamide]
1 to 10 | COc1ccc(-c2ccnnc2)c(CNC(=O)c2cn(Cc3cn4cc(C5CC5)ccc4n3)nn2)c1F [Example I-86, 1-((6-cyclopropylimidazo[1,2-a]pyridin-2-yl)methyl)-N-(2-fluoro-3-methoxy-6-(pyridazin-4-yl)benzyl)-1H-1,2,3-triazole-4-carboxamide]
> 7100 | Cc1cc(C#N)cc(C)c1CNS(=O)(=O)c1cnn(Cc2cn3cc(C4CC4)ccc3n2)c1 [Example I-43, N-(4-cyano-2,6-dimethylbenzyl)-1-((6-cyclopropylimidazo[1,2-a]pyridin-2-yl)methyl)-1H-pyrazole-4-sulfonamide]
100 to 2000 | O=C(NCCOc1cccc(Cl)c1)c1cnn(Cc2cn3cc(C4CC4)ccc3n2)c1 [Example I-129, N-(2-(3-chlorophenoxy)ethyl)-1-((6-cyclopropylimidazo[1,2-a]pyridin-2-yl)methyl)-1H-pyrazole-4-carboxamide]
≤ 1 | COc1ccc(-n2cnnn2)c(CNC(=O)c2cn(Cc3cn4cc(C5CC5)cc(F)c4n3)nn2)c1F [Example I-99, 1-((6-cyclopropyl-8-fluoroimidazo[1,2-a]pyridin-2-yl)methyl)-N-(2-fluoro-3-methoxy-6-(1H-tetrazol-1-yl)benzyl)-1H-1,2,3-triazole-4-carboxamide]
≤ 1 | COc1ccc(C#N)c(CNC(=O)c2cnn(Cc3cn4cc(C5CC5)cc(C#N)c4n3)c2)c1F [Example I-118, N-(6-cyano-2-fluoro-3-methoxybenzyl)-1-((8-cyano-6-cyclopropylimidazo[1,2-a]pyridin-2-yl)methyl)-1H-pyrazole-4-carboxamide]
10 to 100 | COc1ccc(-c2cn3ccccc3n2)c(CNC(=O)c2cn(Cc3cn4cc(C5CC5)ccc4n3)nn2)c1F [Example I-70, 1-((6-cyclopropylimidazo[1,2-a]pyridin-2-yl)methyl)-N-(2-fluoro-6-(imidazo[1,2-a]pyridin-2-yl)-3-methoxybenzyl)-1H-1,2,3-triazole-4-carboxamide]
1 to 10 | COc1ccc(-n2cnnn2)c(CNCc2cn(Cc3cn4cc(C5CC5)ccc4n3)nn2)c1F [Example I-29, 1-(1-((6-cyclopropylimidazo[1,2-a]pyridin-2-yl)methyl)-1H-1,2,3-triazol-4-yl)-N-(2-fluoro-3-methoxy-6-(1H-tetrazol-1-yl)benzyl)methanamine]
> 7100 | O=S(=O)(NCCOc1ccccc1)c1cnn(Cc2cn3cc(C4CC4)ccc3n2)c1 [Example I-36, 1-((6-cyclopropylimidazo[1,2-a]pyridin-2-yl)methyl)-N-(2-phenoxyethyl)-1H-pyrazole-4-sulfonamide]
≤ 1 | COc1ccc(-n2cnnn2)c(CNC(=O)c2nnc(Cc3cn4cc(C5CC5)ccc4n3)o2)c1F [Example I-94, 5-((6-cyclopropylimidazo[1,2-a]pyridin-2-yl)methyl)-N-(2-fluoro-3-methoxy-6-(1H-tetrazol-1-yl)benzyl)-1,3,4-oxadiazole-2-carboxamide]
100 to 2000 | O=C(NCc1nccc(OC(F)F)c1F)c1cn(Cc2cn3cc(C4CC4)cc(N4CCN(CC(F)(F)F)CC4)c3n2)nn1 [Example I-152, 1-((6-cyclopropyl-8-(4-(2,2,2-trifluoroethyl)piperazin-1-yl)imidazo[1,2-a]pyridin-2-yl)methyl)-N-((4-(difluoromethoxy)-3-fluoropyridin-2-yl)methyl)-1H-1,2,3-triazole-4-carboxamide]
≤ 1 | COc1ccc(-n2cnnn2)c(CNC(=O)c2cn(Cc3cn4cc(C5CC5)cc(C(O)C5COC5)c4n3)nn2)c1F (stereo not drawn) [Example I-27, 1-((6-cyclopropyl-8-(hydroxy(oxetan-3-yl)methyl)imidazo[1,2-a]pyridin-2-yl)methyl)-N-(2-fluoro-3-methoxy-6-(1H-tetrazol-1-yl)benzyl)-1H-1,2,3-triazole-4-carboxamide]
1 to 10 | Cc1[nH]nc2c1CC[C@H]2NC(=O)c1cnn(Cc2cn3cc(C4CC4)ccc3n2)c1 [Example I-155]
≤ 1 | COc1ccc(-n2cnnn2)c(CNC(=O)c2cn(Cc3cn4cc(C5CC5)cc(COCCN)c4n3)nn2)c1F [Example I-17, 1-((8-((2-aminoethoxy)methyl)-6-cyclopropylimidazo[1,2-a]pyridin-2-yl)methyl)-N-(2-fluoro-3-methoxy-6-(1H-tetrazol-1-yl)benzyl)-1H-1,2,3-triazole-4-carboxamide]
10 to 100 | COc1ccnc(CNC(=O)c2cn(Cc3cn4cc(C5CC5)ccc4n3)nn2)c1F [Example I-7, 1-((6-cyclopropylimidazo[1,2-a]pyridin-2-yl)methyl)-N-((3-fluoro-4-methoxypyridin-2-yl)methyl)-1H-1,2,3-triazole-4-carboxamide]
10 to 100 | O=C(NCc1cc(=O)[nH]c2ccccc12)c1cnn(Cc2cn3cc(C4CC4)ccc3n2)c1 [Example I-120, 1-((6-cyclopropylimidazo[1,2-a]pyridin-2-yl)methyl)-N-((2-oxo-1,2-dihydroquinolin-4-yl)methyl)-1H-pyrazole-4-carboxamide]
1 to 10 | COc1ccnc(CNC(=O)c2cn(Cc3cn4cc(C5CC5)cc(CCN(C)C)c4n3)nn2)c1F [Example I-138, 1-((6-cyclopropyl-8-(2-(dimethylamino)ethyl)imidazo[1,2-a]pyridin-2-yl)methyl)-N-((3-fluoro-4-methoxypyridin-2-yl)methyl)-1H-1,2,3-triazole-4-carboxamide]
1 to 10 | O=C(NCc1cc2cc[nH]c2cn1)c1cn(Cc2cn3cc(C4CC4)ccc3n2)nn1 [Example I-144, N-((1H-pyrrolo[2,3-c]pyridin-5-yl)methyl)-1-((6-cyclopropylimidazo[1,2-a]pyridin-2-yl)methyl)-1H-1,2,3-triazole-4-carboxamide]
2000 to 7100 | Cc1cc(CN)cc(C)c1CNS(=O)(=O)c1cnn(Cc2cn3cc(C4CC4)ccc3n2)c1 [Example I-41, N-(4-(aminomethyl)-2,6-dimethylbenzyl)-1-((6-cyclopropylimidazo[1,2-a]pyridin-2-yl)methyl)-1H-pyrazole-4-sulfonamide]
10 to 100 | COc1ccnc(CNC(=O)c2cn3c(n2)CCC3c2cn3cc(C4CC4)ccc3n2)c1F (stereo not drawn) [Example I-5, 5-(6-cyclopropylimidazo[1,2-a]pyridin-2-yl)-N-((3-fluoro-4-methoxypyridin-2-yl)methyl)-6,7-dihydro-5H-pyrrolo[1,2-a]imidazole-2-carboxamide]
2000 to 7100 | O=C(NCc1cccc2ccc(Br)cc12)c1cnn(Cc2cn3cc(C4CC4)ccc3n2)c1 [Example I-133, N-((7-bromonaphthalen-1-yl)methyl)-1-((6-cyclopropylimidazo[1,2-a]pyridin-2-yl)methyl)-1H-pyrazole-4-carboxamide]
1 to 10 | CCOC(=O)CCc1cc(C2CC2)cn2cc(Cn3cc(C(=O)NCc4c(C#N)ccc(OC)c4F)nn3)nc12 [Example I-108, ethyl 3-(2-((4-((6-cyano-2-fluoro-3-methoxybenzyl)carbamoyl)-1H-1,2,3-triazol-1-yl)methyl)-6-cyclopropylimidazo[1,2-a]pyridin-8-yl)propanoate]
> 7100 | O=S(=O)(NCc1cccc(Cl)c1)c1cnn(Cc2cn3cc(C4CC4)ccc3n2)c1 [Example I-47, N-(3-chlorobenzyl)-1-((6-cyclopropylimidazo[1,2-a]pyridin-2-yl)methyl)-1H-pyrazole-4-sulfonamide]
100 to 2000 | O=C(NCc1cc2c(cn1)CCCO2)c1cn(Cc2cn3cc(C4CC4)ccc3n2)nn1 [Example I-150, 1-((6-cyclopropylimidazo[1,2-a]pyridin-2-yl)methyl)-N-((3,4-dihydro-2H-pyrano[3,2-c]pyridin-7-yl)methyl)-1H-1,2,3-triazole-4-carboxamide]
